{"source": "patent US20240277873A1", "about": "“ULTRABRIGHT […] PROBES FOR DETECTION AND IMAGING” (Nanyang Technological University, priority 2021, published 2024)", "key": {"[1]": {"settings": "cited from earlier work"}, "[2]": {"assay": "Chemiluminescence and fluorescence changes of probes toward O2•- (KO2): response, selectivity, LOD", "settings": "for LOD against O2•-: KO2 0-1000 nM, LOD=3σ/k; for LOD against O2•- / fluorescent signal enhancement upon cleavage by O2•-: PBS (10 mM, pH 7.4, 10% DMSO), 37° C.; for chemiluminescence intensity increase after addition of O2•- / fluorescent signal enhancement upon cleavage by O2•-: probe 20 μM; for chemiluminescence intensity increase after addition of O2•-: O2•- 40 μM for 10 s, PBS pH 7.4, 37° C., at 480 / 520 / 580 / 540 nm; for fluorescent signal enhancement upon cleavage by O2•-: at ~486 / 532 / 582 / 542 nm", "procedure": "The chemiluminescence and fluorescence changes of BOPDSu, BTPDSu, MBPDSu and MPDSu (20 μM) were recorded at different concentrations of RONS (40 μM) and other metal ions (100 μM). BOPDSu, BTPDSu, MBPDSu and MPDSu (20 μM) in phosphate buffered saline (PBS) buffer were treated in the presence of different RONS (40 μM), and metal ions (Mg^2+, Ca^2+ or Fe^2+, 100 μM) at 37° C.\nThe chemiluminescence signals were recorded at different concentrations of KO2 (0, 50, 100, 250, 500 and 1000 nM). Then, the limit of detection (LOD) of BOPDSu, BTPDSu, MBPDSu and MPDSu were calculated by chemiluminescence intensities based on the equation: LOD=3σ/k, where σ is the standard deviation of emission intensity of blank, and k is the slope of plot of emission intensities."}, "[3]": {"assay": "Chemiluminescence kinetic studies (half-lives, CL emission) of caged probes in the presence of O2•-", "format": "physicochemical", "settings": "caged probe after activation, in PBS (10% DMSO) at 37° C.", "procedure": "FIG. […]\n[…] The chemiluminescent intensities were plotted as a function of time.\n[…] The chemiluminescence signal was recorded by the microplate reader to calculate half-lives of BTPDSu at different pHs."}, "[4]": {"assay": "Chemiluminescence quantum yield in the presence of O2•-", "format": "physicochemical", "settings": "probe 20 μM, O2•- 100 μM, PBS (10 mM, pH 7.4, 10% DMSO), 37° C.", "procedure": "(§1) The chemiluminescence QYs of BOPDSu, BTPDSu, MBPDSu, and MPDSu (20 μM) were measured in the presence of O2^•- (100 μM) in PBS (10 mM, pH 7.4, 10% DMSO) at 37° C. The fluorescence QYs were determined by using Rhodamine B as a standard dye (QY 36%) in PBS (10 mM, pH 7.4) (X. Zhen et al., ACS Nano 2016, 10, 6400-6409). The fluorescence QY of AMPD was obtained from the literature (O. Green et al., ACS Cent. Sci. 2017, 3, 349-358)."}, "[5]": {"assay": "Fluorescence quantum yield of activated probes", "format": "physicochemical", "settings": "Rhodamine B as standard (QY 36%), PBS (10 mM, pH 7.4)", "procedure": "as §1"}, "dorsal skins of mice": {"tested_on": "dorsal skins of mice", "assay": "Histopathologic, immunohistochemical and flow cytometry analyses of dorsal skins (IMQ psoriasis model)", "format": "in vivo, BALB/c mice", "procedure": "The control group was treated with Vaseline (50 mg/d) and the IMQ-treatment group was applied with IMQ cream (60 mg/d, 5%) once a day. […] Probe BTPDNe (10 uM, 1 mM in DMSO) was thoroughly mixed with Aquaphor (˜10 mg) and applied for psoriasis imaging, followed by poly(methyl methacrylate) microneedle treatment for 1 min. Then, chemiluminescent signals at different time-points (0, 3, 5, 10, 15, 30, 45 and 60 min) after probe-treatment were recorded using IVIS system bioluminescence with acquiring time of 180 s. Until the third day, all the mice were sacrificed to collect tissue and blood for further experiments (hematoxylin and eosin (H&E) staining and flow cytometry analysis) as described in Example 11.\nThe dorsal skin samples were separated and soaked in 4% paraformaldehyde (4% PFA) for 12 h and immersed in 30% sucrose solution. The skin samples were stained by hematoxylin and eosin (H&E). Then, the samples were flash-frozen by liquid nitrogen, immobilized with optimal cutting temperature compound, and section slices ([…]). The thickness of epidermis was observed under a microscope (Nikon ECLIPSE 80i microscope). APC-Ly6G, as a neutrophil marker, was used to stain neutrophil cells and DAPI was applied for cell nucleus staining. The immunofluorescence was observed by Nikon ECLIPSE 80i microscope.\nAfter performing in vivo chemiluminescence imaging of neutrophils using BTPDNe in psoriasis-bearing mice with 2 day IMQ treatment, fresh section slices from dorsal skins were stained with Ly6G. Immunofluorescence imaging of slices with activated BTPDNe in green color was observed upon excitation at 405 nm and emission at 500-550 nm, while red color from Ly6G was observed upon excitation from 633-647 nm and emission at 660 nm. The immunofluorescence imaging was acquired by Nikon ECLIPSE 80i microscope."}, "[6]": {"settings": "uncaged, in PBS (10% DMSO), pH 7.4, 37° C."}, "[7]": {"settings": "uncaged, in PBS (5% DMSO), pH 7.4, 37° C."}, "[8]": {"settings": "uncaged, in PBS (10% DMSO), pH 10, 37° C."}, "[9]": {"settings": "uncaged, in PBS, pH 7.4, 10% FBS"}}, "note": "Where two headings read alike, the source gives them in different places.", "data": [{"compound": "COC1(c2cc(O)cc3oc(=O)ccc23)OOC12C1CC3CC(C1)CC2C3", "note": "(stereo not drawn)", "values": [{"measurement": "CL Emission", "setting": "[1]; [6]", "value": 465, "unit": "nm"}]}, {"compound": "COC1(c2cccc(O)c2)OOC12C1CC3CC(C1)CC2C3", "note": "(stereo not drawn)", "values": [{"measurement": "CL Emission", "setting": "[1]; uncaged, in o-Xylene at 25° C.", "value": "~460", "unit": "nm"}]}, {"compound": "COC1(c2cccc(O)c2Cl)OOC12C1CC3CC(C1)CC2C3", "note": "(stereo not drawn)", "values": [{"measurement": "CL Emission", "setting": "[1]; [7]", "value": 470, "unit": "nm"}, {"measurement": "CL Emission", "setting": "[1]; uncaged, in PBS (5% DMSO), pH 10, 37° C.", "value": 470, "unit": "nm"}]}, {"compound": "COC1(c2ccc(/C=C/C(=O)O)c(O)c2Cl)OOC12C1CC3CC(C1)CC2C3", "note": "(stereo not drawn)", "values": [{"measurement": "CL Emission", "setting": "[1]; [6]", "value": 510, "unit": "nm"}, {"measurement": "CL Emission", "setting": "[1]; [8]", "value": 510, "unit": "nm"}]}, {"compound": "COC1(c2ccc(/C=C/c3ccc(C(=O)O)cc3)c(O)c2Cl)OOC12C1CC3CC(C1)CC2C3", "note": "(stereo not drawn)", "values": [{"measurement": "CL Emission", "setting": "[1]; [6]", "value": 535, "unit": "nm"}, {"measurement": "CL Emission", "setting": "[1]; [8]", "value": 535, "unit": "nm"}]}, {"compound": "COC1(c2ccc(/C=C/c3ccc(CC(=O)O)cc3)c(O)c2Cl)OOC12C1CC3CC(C1)CC2C3", "note": "(stereo not drawn)", "values": [{"measurement": "CL Emission", "setting": "[1]; [6]", "value": 500, "unit": "nm"}, {"measurement": "CL Emission", "setting": "[1]; [8]", "value": 500, "unit": "nm"}]}, {"compound": "COC1(c2ccc(/C=C/c3ccc(OCC(=O)O)cc3)c(O)c2Cl)OOC12C1CC3CC(C1)CC2C3", "note": "(stereo not drawn)", "values": [{"measurement": "CL Emission", "setting": "[1]; [6]", "value": 490, "unit": "nm"}, {"measurement": "CL Emission", "setting": "[1]; [8]", "value": 490, "unit": "nm"}]}, {"compound": "COC1(c2cc(O)ccc2/C=C/C2=CC(=C(C#N)C#N)c3ccccc3O2)OOC12C1CC3CC(C1)CC2C3", "note": "(stereo not drawn)", "values": [{"measurement": "CL Emission", "setting": "[1]; [9]", "value": 660, "unit": "nm"}]}, {"compound": "COC1(c2cc(O)c(/C=C/C(=O)O)cc2/C=C/C2=CC(=C(C#N)C#N)c3ccccc3O2)OOC12C1CC3CC(C1)CC2C3", "note": "(stereo not drawn)", "values": [{"measurement": "CL Emission", "setting": "[1]; [9]", "value": 690, "unit": "nm"}]}, {"compound": "CC(=O)Oc1cc(C23OCC(C)(C)C2(C(C)(C)C)OO3)cc2ccc(=O)oc12", "note": "(stereo not drawn)", "values": [{"measurement": "CL Emission", "setting": "[1]; caged, after activation, in DMSO with 170 μM TBAF at 25° C.", "value": 470, "unit": "nm"}]}, {"compound": "COC1(c2ccc(/C=C/C#N)c(OC(=O)c3ccccc3P(c3ccccc3)c3ccccc3)c2Cl)OOC12C1CC3CC(C1)CC2C3", "note": "(stereo not drawn)", "values": [{"measurement": "CL Emission", "setting": "[1]; caged, after activation, in 20 mM HEPES or PBS (pH 7.4), 1% DMSO", "value": 525, "unit": "nm"}]}, {"compound": "COC1(c2ccc(/C=C/C#N)c(OCc3ccc4c(c3)C(=O)C(=O)N4)c2Cl)OOC12C1CC3CC(C1)CC2C3", "note": "(stereo not drawn)", "values": [{"measurement": "CL Emission", "setting": "[1]; caged, after activation, in 20 mM HEPES (pH 7.4), 1% DMSO", "value": 525, "unit": "nm"}]}, {"compound": "1-methylpyridinium-benzothiazole-phenoxyl-dioxetane [MBPDSu]", "values": [{"measurement": "LOD against O2•-", "setting": "[2]", "value": 6.3, "unit": "nM"}, {"measurement": "chemiluminescence intensity increase after addition of O2•-", "setting": "[2]", "value": 2590, "unit": "times"}, {"measurement": "fluorescent signal enhancement upon cleavage by O2•-", "setting": "[2]", "value": 40.5, "unit": "folds"}, {"measurement": "CL Emission", "setting": "[3]", "value": 580, "unit": "nm"}, {"measurement": "ΦCl, chemiluminescence QY", "setting": "[4]", "value": 0.045, "unit": "einsteins/mol"}]}, {"compound": "COC(=O)c1ccc(-c2nc3ccccc3o2)c(O)c1", "note": "[ABOPD]", "values": [{"measurement": "ΦFl, fluorescence QY of activated probe", "setting": "[5]", "value": 33.0, "unit": "%"}]}, {"compound": "COC(=O)c1ccc(-c2nc3ccccc3s2)c(O)c1", "note": "[ABTPD]", "values": [{"measurement": "ΦFl, fluorescence QY of activated probe", "setting": "[5]", "value": 24.1, "unit": "%"}]}, {"compound": "COC(=O)c1cc(O)c(-c2nc3ccccc3s2)cc1/C=C/c1cc[n+](C)cc1.[I-]", "note": "[AMBPD]", "values": [{"measurement": "ΦFl, fluorescence QY of activated probe", "setting": "[5]", "value": 7.5, "unit": "%"}]}, {"compound": "CC(C)Cn1cnc2c(N)nc3ccccc3c21", "note": "[IMQ, Imiquimod]", "values": [{"measurement": "population of NE-expressing neutrophils in skins relative to CsA-treated group", "setting": "dorsal skins of mice; day 2, flow cytometry", "value": 2.62, "unit": "times"}, {"measurement": "population of NE-expressing neutrophils in skins relative to control group", "setting": "dorsal skins of mice; day 2, flow cytometry", "value": 2.03, "unit": "times"}, {"measurement": "skin thickness and neutrophil (CD11c+, Ly6G+) population / infiltration", "setting": "dorsal skins of mice; dorsal skins, histology and immunohistochemistry, vs control group", "value": "increased thickness and neutrophil (CD11c+, Ly6G+) infiltration"}]}, {"compound": "COC(=O)/C=C/c1ccc(C2(OC)OOC23C2CC4CC(C2)CC3C4)c(Cl)c1O", "note": "(stereo not drawn) [drawing 49]", "values": [{"measurement": "CL Emission", "setting": "[1]; [6]", "value": 540, "unit": "nm"}, {"measurement": "CL Emission", "setting": "[1]; [8]", "value": 550, "unit": "nm"}]}, {"compound": "COC(=O)/C=C/c1ccc(C2(OC)OOC23C2CC4CC(C2)CC3C4)c(Cl)c1O", "note": "(stereo not drawn) [drawing 50]", "values": [{"measurement": "CL Emission", "setting": "[1]; [7]", "value": 540, "unit": "nm"}]}, {"compound": "COC1(c2ccc(/C=C/C#N)c(O)c2Cl)OOC12C1CC3CC(C1)CC2C3", "note": "(stereo not drawn) [drawing 51]", "values": [{"measurement": "CL Emission", "setting": "[1]; [7]", "value": 525, "unit": "nm"}]}, {"compound": "COC1(c2ccc(/C=C/C#N)c(O)c2Cl)OOC12C1CC3CC(C1)CC2C3", "note": "(stereo not drawn) [drawing 52]", "values": [{"measurement": "CL Emission", "setting": "[1]; [6]", "value": 525, "unit": "nm"}, {"measurement": "CL Emission", "setting": "[1]; [8]", "value": 525, "unit": "nm"}]}, {"compound": "benzoxazole-phenoxyl-dioxetane [BOPDSu]", "values": [{"measurement": "LOD against O2•-", "setting": "[2]", "value": "~5.7", "unit": "nM"}, {"measurement": "chemiluminescence intensity increase after addition of O2•-", "setting": "[2]", "value": 3291, "unit": "times"}, {"measurement": "fluorescent signal enhancement upon cleavage by O2•-", "setting": "[2]", "value": 45.3, "unit": "folds"}, {"measurement": "ΦCl, chemiluminescence QY", "setting": "[4]", "value": 0.189, "unit": "einsteins/mol"}]}, {"compound": "methyl acrylate-phenoxyl-dioxetane [MPDSu, reference compound]", "values": [{"measurement": "LOD against O2•-", "setting": "[2]", "value": 13.6, "unit": "nM"}, {"measurement": "chemiluminescence intensity increase after addition of O2•-", "setting": "[2]", "value": 2624, "unit": "times"}, {"measurement": "fluorescent signal enhancement upon cleavage by O2•-", "setting": "[2]", "value": 11.2, "unit": "folds"}, {"measurement": "ΦCl, chemiluminescence QY", "setting": "[4]", "value": 0.023, "unit": "einsteins/mol"}]}]}
